Read-outs that look alike come from different tables or passages of the source.
Target: T1, purified human IDO protein (Homo sapiens, UniProt P14902)
T1 construct: 2 extra amino acids (linker from the BglII cloning site of pQE70); made in house; host or cells: E. coli M15(pREP4) with plasmid pQE70-hIDO
Assay: Enzymatic IDO assay (kynurenine production, absorbance at 480 nm)
Assay type: biochemical
Settings: values reported in ranges
Description: The inhibitors were initially diluted in DMSO at 100 mM and were diluted in potassium phosphate 50 mM, added to the reaction mixture at final concentrations raging from 1 mM to 5 nM and preincubated with the enzyme for 5 min at 25° C. The reaction was started by addition of L-tryptophan to 200 μM and incubated 15 min at 37° C. The reaction was stopped by addition of 0.5 vol of 30% trichloroacetic acid and incubated 30 min at 60° C. to hydrolyze N-formylkynurenine to kynurenine. The reaction was centrifuged at 3400 g for 5 min to remove precipitated protein and the supernatant was reacted with 2% (w/v) of p-dimethylaminobenzaldehyde in acetic acid. The reaction was incubated 10 min at 25° C. and read at 480 nm in a spectrophotometer. […] Nonlinear regressions and determination of the IC50 values were performed using the GraphPad Prism 4 software.

[1] = recombinant human IDO, read-out: hIDO IC50
[2] = hIDO IC50, recombinant human IDO

T1 sequence (P14902 whole entry P110S/E119G): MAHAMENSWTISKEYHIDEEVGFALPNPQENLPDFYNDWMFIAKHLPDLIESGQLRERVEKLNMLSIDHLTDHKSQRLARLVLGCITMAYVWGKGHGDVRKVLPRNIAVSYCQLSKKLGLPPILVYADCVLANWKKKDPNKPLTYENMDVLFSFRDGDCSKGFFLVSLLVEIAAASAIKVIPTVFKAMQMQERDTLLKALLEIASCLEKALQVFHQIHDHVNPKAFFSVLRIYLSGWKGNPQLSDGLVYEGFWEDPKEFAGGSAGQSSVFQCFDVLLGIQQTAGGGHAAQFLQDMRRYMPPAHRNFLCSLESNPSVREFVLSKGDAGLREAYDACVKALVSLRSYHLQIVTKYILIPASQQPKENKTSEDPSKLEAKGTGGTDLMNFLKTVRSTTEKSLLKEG

## O=C(Nc1ccc(CCOc2ccccc2-c2c[nH]cn2)cc1)NC1CCOCC1 [compound 1263, 1-(4-(2-(2-(1H-imidazol-4-yl)phenoxy)ethyl)phenyl)-3-(tetrahydro-2H-pyran-4-yl)urea]
[1]
  IC50: 10 to 100 µM

## Fc1ccccc1CCOc1ccccc1-c1cnc[nH]1 [compound 1106, 5-(2-(2-fluorophenethoxy)phenyl)-1H-imidazole]
[1]
  IC50: 1 to 10 µM

## O=C(Nc1ccc(CCOc2ccccc2-c2c[nH]cn2)cc1)OCc1ccccc1 [compound 1136, benzyl (4-(2-(2-(1H-imidazol-4-yl)phenoxy)ethyl)phenyl)carbamate]
[1]
  IC50: 1 to 10 µM

## O=C(Nc1ccc(CCOc2ccccc2-c2c[nH]cn2)cc1)c1cccs1 [compound 1150, N-(4-(2-(2-(1H-imidazol-4-yl)phenoxy)ethyl)phenyl)thiophene-2-carboxamide]
[1]
  IC50: 1 to 10 µM

## O=C(Nc1cccc(OC2CCOC2)c1)Nc1ccc(CCOc2ccccc2-c2c[nH]cn2)c(Cl)c1 (stereo not shown) [compound 1346, 1-(4-(2-(2-(1H-imidazol-4-yl)phenoxy)ethyl)-3-chlorophenyl)-3-(3-(tetrahydrofuran-3-yloxy)phenyl)urea]
[1]
  IC50: 1 to 10 µM

## c1ccc2c(-c3c[nH]cn3)ccnc2c1 [compound 1007, 4-(1H-imidazol-4-yl)quinoline]
[1]
  IC50: > 100 µM

## OC(COc1ccccc1-c1c[nH]cn1)c1cccc(Br)c1 (stereo not shown) [compound 954, 2-(2-(1H-imidazol-4-yl)phenoxy)-1-(3-bromo-phenyl)ethanol]
[1]
  IC50: 10 to 100 µM

## CC(=O)OCCN(C)C(=O)Oc1ccc(Cl)cc1-c1c[nH]cn1 [compound 1253, 2-(((4-chloro-2-(1H-imidazol-4-yl)phenoxy)carbonyl)(methyl)amino)ethyl acetate]
[2]
  IC50: > 100 µM

## Clc1ccc(OCc2ccccc2)c(-c2cncn2C2CCCCC2)c1 [compound 1060, 5-(2-(benzyloxy)-5-chlorophenyl)-1-cyclo-hexyl-1H-imidazole]
[1]
  IC50: > 100 µM

## O=C(Nc1ccccc1)Nc1ccc(CCOc2ccccc2-c2c[nH]cn2)c(Cl)c1 [compound 1347, 1-(4-(2-(2-(1H-imidazol-4-yl)phenoxy)ethyl)-3-chlorophenyl)-3-phenylurea]
[1]
  IC50: < 1 µM

## Oc1ccccc1-c1cnco1 [compound 1139, 2-(oxazol-5-yl)phenol]
[1]
  IC50: 10 to 100 µM

## O=C(Cc1cnccn1)Nc1ccc(CCOc2ccccc2-c2c[nH]cn2)cc1 [compound 1156, N-(4-(2-(2-(1H-imidazol-4-yl)phenoxy)ethyl)phenyl)-2-(pyrazin-2-yl)acetamide]
[1]
  IC50: 1 to 10 µM

## O=C(c1cccs1)N1CCC(CCOc2ccccc2-c2c[nH]cn2)CC1 [compound 1165, (4-(2-(2-(1H-imidazol-4-yl)phenoxy)ethyl)piperidin-1-yl)(thiophen-2-yl)methanone]
[1]
  IC50: 1 to 10 µM

## c1ccc(-c2c[nH]cn2)c(OCCN2CCOCC2)c1 [compound 1236, 4-(2-(2-(1H-imidazol-4-yl)phenoxy)ethyl) morpholine]
[1]
  IC50: > 100 µM

## O=C(COc1ccccc1-c1c[nH]cn1)C1CCCCC1 [compound 1354, 2-(2-(1H-imidazol-4-yl)phenoxy)-1-cyclohex-ylethanone]
[1]
  IC50: 1 to 10 µM

## CC(Oc1ccccc1-c1c[nH]cn1)c1ccc(Cl)cc1 (stereo not shown) [compound 1024, 4-(2-(1-(4-chlorophenyl)ethoxy)phenyl)-1H-imidazole]
[1]
  IC50: 10 to 100 µM

## CCOC(=O)Oc1ccc(Br)cc1-c1cn(C(=O)OCC)cn1 [compound 1036, ethyl 4-(5-bromo-2-(ethoxycarbonyloxy)phenyl)-1H-imidazole-1-carboxylate]
[1]
  IC50: 10 to 100 µM

## O=C(CC1CCOCC1)Nc1ccc(Cl)c(CCOc2ccccc2-c2c[nH]cn2)c1 [compound 1298, N-(3-(2-(2-(1H-imidazol-4-yl)phenoxy)ethyl)-4-chlorophenyl)-2-(tetrahydro-2H-pyran-4-yl)acetamide]
[1]
  IC50: 10 to 100 µM

## O=C(Cc1cccs1)Nc1ccc(CCOc2ccccc2-c2c[nH]cn2)cc1 [compound 1154, N-(4-(2-(2-(1H-imidazol-4-yl)phenoxy)ethyl)phenyl)-2-(thiophen-2-yl)acetamide]
[1]
  IC50: 1 to 10 µM

## O=C(Cc1cnccn1)Nc1ccc(CCOc2ccccc2-c2c[nH]cn2)cc1 [compound 1153, N-(4-(2-(2-(1H-imidazol-4-yl)phenoxy)ethyl)phenyl)-2-(pyrazin-2-yl)acetamide]
[1]
  IC50: 10 to 100 µM

## Oc1cc(Cl)cc(-c2cnc[nH]2)c1O [compound 1221, 5-chloro-3-(1H-imidazol-5-yl)benzene-1,2-diol]
[1]
  IC50: 1 to 10 µM

## CN1CCN(CCOc2ccccc2-c2c[nH]cn2)CC1 [compound 1234, 1-(2-(2-(1H-imidazol-4-yl)phenoxy)ethyl)-4-methylpiperazine]
[1]
  IC50: > 100 µM

## Oc1ccc(OCc2ccccc2)cc1-c1cnc[nH]1 [compound 1105, 4-(benzyloxy)-2-(1H-imidazol-5-yl)phenol]
[1]
  IC50: 10 to 100 µM

## CC(=O)NCc1ccccc1-c1c[nH]cn1 [compound 1207, N-(2-(1H-imidazol-4-yl)benzyl)acetamide]
[1]
  IC50: > 100 µM

## O=C(NCc1cccc(Cl)c1)C1CCC(=CCOc2ccccc2-c2c[nH]cn2)CC1 (stereo not shown) [compound 947, 4-(2-(2-(1H-imidazol-4-yl)phenoxy)ethylidene)-N-(3-chlorobenzyl)cyclohexanecarbox-amide]
[1]
  IC50: 10 to 100 µM

## Oc1cccc(-c2c[nH]cn2)n1 [compound 1011, 6-(1H-imidazol-4-yl)pyridin-2-ol]
[1]
  IC50: > 100 µM

## O=C(COc1ccccc1-c1c[nH]cn1)c1ccc2ccsc2c1 [compound 1018, 2-(2-(1H-imidazol-4-yl)phenoxy)-1-(benzo[b]thiophen-6-yl)ethanone]
[1]
  IC50: 1 to 10 µM

## c1ccc2oc(-c3c[nH]cn3)cc2c1 [compound 1026, 4-(benzofuran-2-yl)-1H-imidazole]
[1]
  IC50: > 100 µM

## COc1ncccc1-c1c[nH]cn1 [compound 1012, 3-(1H-imidazol-4-yl)-2-methoxypyridine]
[1]
  IC50: > 100 µM

## Oc1cc(F)c(Cl)cc1-c1cnc[nH]1 [compound 1130, 4-chloro-5-fluoro-2-(1H-imidazol-5-yl)phenol]
[1]
  IC50: 1 to 10 µM

## CCOC(=O)Nc1ccc(CCOc2ccccc2-c2c[nH]cn2)cc1 [compound 1104, ethyl 4-(2-(2-(1H-imidazol-4-yl)phenoxy)ethyl)phenylcarbamate]
[1]
  IC50: 1 to 10 µM

## O=C(O)c1ccccc1-c1c[nH]cn1 [compound 926, 2-(1H-imidazol-4-yl)benzoic acid]
[1]
  IC50: > 100 µM

## c1ccc(-c2c[nH]cn2)c(OCCc2ccc(-c3ccsc3)cc2)c1 [compound 1201, 4-(2-(4-(thiophen-3-yl)phenethoxy)phenyl)-1H-imidazole]
[1]
  IC50: 10 to 100 µM

## c1cc(-c2c[nH]cn2)c2[nH]ccc2c1 [compound 948, 7-(1H-imidazol-4-yl)-1H-indole]
[1]
  IC50: 10 to 100 µM

## CCOC(=O)n1cnc(-c2ccccc2)c1 [compound 1047, ethyl 4-phenyl-1H-imidazole-1-carboxylate]
[1]
  IC50: > 100 µM

## O=C(CN1CCCCCC1)Nc1ccc(CCOc2ccccc2-c2c[nH]cn2)cc1 [compound 1219, N-(4-(2-(2-(1H-imidazol-4-yl)phenoxy)ethyl)phenyl)-2-(azepan-1-yl)acetamide]
[1]
  IC50: 10 to 100 µM

## CC(=O)Nc1ccccc1-c1c[nH]cn1 [compound 1121, N-(2-(1H-imidazol-4-yl)phenyl)acetamide]
[1]
  IC50: > 100 µM

## Oc1ccc(Cl)c(OCCC2CCCCC2)c1-c1cnc[nH]1 [compound 1172, 4-chloro-3-(2-cyclohexylethoxy)-2-(1H-imidazol-5-yl)phenol]
[1]
  IC50: 1 to 10 µM

## Clc1ccccc1CCOc1ccc(Br)cc1-c1c[nH]cn1 [compound 1021, 4-(5-bromo-2-(2-chlorophenethoxy)phenyl)-1H-imidazole]
[1]
  IC50: 10 to 100 µM

## COc1cccc2c1-c1cncn1C2 [compound 1013, 9-methoxy-5H-imidazo[5,1-a]isoindole]
[1]
  IC50: 10 to 100 µM

## Nc1ccccc1CC(=O)Nc1ccc(CCOc2ccccc2-c2c[nH]cn2)cc1 [compound 1248, N-(4-(2-(2-(1H-imidazol-4-yl)phenoxy)ethyl)phenyl)-2-(2-aminophenyl)acetamide]
[1]
  IC50: < 1 µM

## O=C(O)c1ccc(COc2ccccc2-c2c[nH]cn2)cc1 [compound 1032, lithium 4-((2-(1H-imidazol-4-yl)phenoxy)methyl) benzoate]
[1]
  IC50: 10 to 100 µM

## c1ccc(-c2c[nH]cn2)c(OCc2ccc3occc3c2)c1 [compound 1028, 4-(2-(benzofuran-5-ylmethoxy)phenyl)-1H-imidazole]
[1]
  IC50: 10 to 100 µM

## O=C(O)c1ccccc1C(=O)COc1ccccc1-c1c[nH]cn1 [compound 979, 2-(2-(2-(1H-imidazol-4-yl)phenoxy)acetyl) benzoic acid]
[1]
  IC50: > 100 µM

## N[C@H]1CCCC[C@H]1NC(=O)Nc1ccc(CCOc2ccccc2-c2c[nH]cn2)c(Cl)c1 (racemic) [compound 1368, 1-(4-(2-(2-(1H-imidazol-4-yl)phenoxy)ethyl)-3-chlorophenyl)-3-(±(1R,2S)-2-aminocyclohexyl)urea]
[1]
  IC50: < 1 µM

## C1=CCC(CCOc2ccccc2-c2c[nH]cn2)CC1 (stereo not shown) [compound 1191, 4-(2-(2-(cyclohex-3-en-1-yl)ethoxy)phenyl)-1H-imidazole]
[1]
  IC50: 1 to 10 µM

## CCC(O)(COc1ccccc1-c1c[nH]cn1)c1cccs1 (stereo not shown) [compound 976, 1-(2-(1H-imidazol-4-yl)phenoxy)-2-(thiophen-2-yl)butan-2-ol]
[1]
  IC50: 10 to 100 µM

## FC(F)(F)c1ccc(COc2ccccc2-c2c[nH]cn2)cc1 [compound 1023, 4-(2-(4-(trifluoromethyl)benzyloxy)phenyl)-1H-imidazole]
[1]
  IC50: > 100 µM

## CN(C)C(=O)Oc1ccc(Br)cc1-c1c[nH]cn1 [compound 1035, 4-bromo-2-(1H-imidazol-4-yl)phenyl dimethylcarbamate]
[2]
  IC50: > 100 µM

Reference: patent US8722720B2, “Imidazole derivatives as IDO inhibitors” (NewLink Genetics Corporation, priority 2010, dated 2014)
